A short description of data set [1]: Steady-state absorption and emission spectra. Conditions: for emission wavelength / emission maxima: excited at BH22IAM absorption wavelength (~340 nm). The data set is classed as physicochemical. The text has this:
FIG. 8 is a steady-state absorption spectrum of FITC-BH22IAM conjugate.

The nature of data set [2]: Fluorescence lifetime decay (time-resolved) of the donor-acceptor conjugate. The data set is classed as physicochemical. Particulars: for long lifetime: excitation of BH22IAM and energy transfer to fluorescein: terbium complex, excited at BH22IAM absorption (~340 nm), fluorescein emission 520 nm. The text has this:
A short lifetime corresponding to the direct excitation of fluorescein (3.92 nsec) and a long lifetime corresponding to excitation of BH22IAM and energy transfer to fluorescein (524 nsec).
In another exemplary embodiment, the compounds of the invention emit light at an emission wavelength of the fluorophore attached to the metal chelate through the acceptor-linker. […] For example, compound 3, when coordinated to terbium and excited at a BH22IAM absorption wavelength (˜340 nm), the metal chelate emits at 520 nm, the characteristic wavelength of fluorescein with a lifetime of 524 nsec. The new lifetime is over 100-fold longer than the lifetime for a fluorescein solution that is directly excited (<5 nsec).
The 524 nsec of the conjugated fluorescein is acquired through direct excitation of the Tb-BH22IAM complex at 340 nm, which normally has a very long lifetime (2.6 msec), followed by energy transfer to the conjugated fluorescein and emission at the characteristic wavelength for fluorescein (520 nm).

Structures are written as SMILES. Values joined by “and” are separate entries in the source; they are usually repeats but may differ in a detail not shown here. Equal entries are not always repeated.

Data on 2 compounds can be found in patent publication US20080213780A1, “MULTI-COLOR TIME RESOLVED FLUOROPHORES BASED ON MACROCYCLIC LANTHANIDE COMPLEXES” (Lumiphore, Inc., priority 2007, published 2008).

Regarding `O=C(O)c1cc(NC(=S)NCCCCC2CN3CCNC(=O)c4cccc(c4O)C(=O)NCCN(CCNC(=O)c4cccc(c4O)C(=O)N2)CCN2CCNC(=O)c4cccc(c4O)C(=O)NCCN(CCNC(=O)c4cccc(c4O)C(=O)NCC2)CC3)ccc1-c1c2ccc(=O)cc-2oc2cc(O)ccc12` (stereo not shown) [4a], in data set [1], the “absorption maximum (BH22IAM)” value is listed as 340 nm; the “absorption maximum (fluorescein)” value was 490 nm; the “emission wavelength / emission maxima” value is 519 nm and 520 nm. The “long lifetime: excitation of BH22IAM and energy transfer to fluorescein” value in data set [2] was 520 nsec and 524 nsec.
As for `O=C(O)c1cc(NC(=S)NCCCCC2CN3CCNC(=O)c4cccc(c4O)C(=O)NCCN(CCNC(=O)c4cccc(c4O)C(=O)N2)CCN2CCNC(=O)c4cccc(c4O)C(=O)NCCN(CCNC(=O)c4cccc(c4O)C(=O)NCC2)CC3)ccc1-c1c2ccc(=O)cc-2oc2cc(O)ccc12` (stereo not shown) [compound 3], the “emission wavelength / emission maxima” value in data set [1] amounted to 520 nm. For the same compound, the “lifetime relative to a directly excited fluorescein solution” value in data set [2] (524 nsec versus <5 nsec) was “over 100 fold”. The “long lifetime: excitation of BH22IAM and energy transfer to fluorescein” value in data set [2] was found to be 524 nsec.
